Article PMC3679108, “A Novel Glucagon-Related Peptide (GCRP) and Its Receptor GCRPR Account for Coevolution of Their Family Members in Vertebrates” (PLoS ONE, 2013)
Peptide text beside a SMILES is read from it.

How the values were obtained:
Format in all cases: cell-based
huGIPR = target: T1, huGIPR (Homo sapiens, UniProt P48546); assay: CRE-luc reporter assay, huGIPR; details: Table 3, HEK293T, 6 h, mean ± S.E. of at least three independent experiments, NR = no response
T1 construct: expressed in transfected cells; host or cells: HEK293T
T1 sequence (P48546 22-466): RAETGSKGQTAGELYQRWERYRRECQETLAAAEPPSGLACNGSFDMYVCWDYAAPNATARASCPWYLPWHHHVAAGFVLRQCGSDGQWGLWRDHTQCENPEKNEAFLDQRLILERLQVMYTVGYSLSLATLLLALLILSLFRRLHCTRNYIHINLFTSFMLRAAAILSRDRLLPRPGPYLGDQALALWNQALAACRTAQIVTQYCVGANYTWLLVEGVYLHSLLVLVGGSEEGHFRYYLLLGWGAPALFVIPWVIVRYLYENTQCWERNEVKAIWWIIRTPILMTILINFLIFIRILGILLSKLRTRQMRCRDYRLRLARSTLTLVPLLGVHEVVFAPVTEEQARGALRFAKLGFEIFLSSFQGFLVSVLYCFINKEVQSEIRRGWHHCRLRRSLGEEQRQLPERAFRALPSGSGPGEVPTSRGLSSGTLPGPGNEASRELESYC

huGLP1R = huGLP1R (Homo sapiens, UniProt P43220); assay: CRE-luc reporter assay, huGLP1R; details: Table 3, HEK293T, 6 h, mean ± S.E. of at least three independent experiments
huGLP1R, sequence (P43220 24-463): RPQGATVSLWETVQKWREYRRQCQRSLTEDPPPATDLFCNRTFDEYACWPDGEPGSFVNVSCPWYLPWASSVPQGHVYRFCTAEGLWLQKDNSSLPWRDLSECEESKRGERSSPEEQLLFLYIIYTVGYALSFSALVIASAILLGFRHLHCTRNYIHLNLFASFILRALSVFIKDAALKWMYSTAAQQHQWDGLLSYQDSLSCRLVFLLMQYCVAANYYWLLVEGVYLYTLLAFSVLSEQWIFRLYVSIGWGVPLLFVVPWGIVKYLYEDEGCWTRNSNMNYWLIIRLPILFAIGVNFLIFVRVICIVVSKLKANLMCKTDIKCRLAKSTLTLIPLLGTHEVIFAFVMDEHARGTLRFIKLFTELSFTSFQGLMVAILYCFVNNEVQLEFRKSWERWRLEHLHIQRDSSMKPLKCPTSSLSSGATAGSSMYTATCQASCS

huGLP2R = target: T2, huGLP2R (Homo sapiens, UniProt O95838); assay: CRE-luc reporter assay, huGLP2R; details: Table 3, HEK293T, 6 h, mean ± S.E. of at least three independent experiments, NR = no response
T2 construct: host or cells: HEK293T
T2 sequence (O95838 1-553): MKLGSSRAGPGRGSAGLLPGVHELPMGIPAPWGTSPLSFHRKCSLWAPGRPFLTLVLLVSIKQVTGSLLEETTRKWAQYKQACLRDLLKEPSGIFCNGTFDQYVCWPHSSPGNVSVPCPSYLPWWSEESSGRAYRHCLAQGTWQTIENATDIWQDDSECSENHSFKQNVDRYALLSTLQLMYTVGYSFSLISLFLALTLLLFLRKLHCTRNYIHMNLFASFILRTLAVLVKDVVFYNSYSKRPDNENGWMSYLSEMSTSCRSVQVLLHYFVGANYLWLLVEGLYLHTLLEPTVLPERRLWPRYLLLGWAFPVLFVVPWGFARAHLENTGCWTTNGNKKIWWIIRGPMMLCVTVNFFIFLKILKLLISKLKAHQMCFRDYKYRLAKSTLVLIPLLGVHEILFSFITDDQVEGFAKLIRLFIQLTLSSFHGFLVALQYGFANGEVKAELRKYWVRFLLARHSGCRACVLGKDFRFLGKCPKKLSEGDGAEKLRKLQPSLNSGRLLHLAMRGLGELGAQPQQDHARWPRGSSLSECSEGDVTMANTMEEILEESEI

huGCGR = target: T3, huGCGR (Homo sapiens, UniProt P47871); assay: CRE-luc reporter assay, huGCGR; details: Table 3, HEK293T, 6 h, mean ± S.E. of at least three independent experiments, NR = no response
T3 construct: host or cells: HEK293T
T3 sequence (P47871 26-477): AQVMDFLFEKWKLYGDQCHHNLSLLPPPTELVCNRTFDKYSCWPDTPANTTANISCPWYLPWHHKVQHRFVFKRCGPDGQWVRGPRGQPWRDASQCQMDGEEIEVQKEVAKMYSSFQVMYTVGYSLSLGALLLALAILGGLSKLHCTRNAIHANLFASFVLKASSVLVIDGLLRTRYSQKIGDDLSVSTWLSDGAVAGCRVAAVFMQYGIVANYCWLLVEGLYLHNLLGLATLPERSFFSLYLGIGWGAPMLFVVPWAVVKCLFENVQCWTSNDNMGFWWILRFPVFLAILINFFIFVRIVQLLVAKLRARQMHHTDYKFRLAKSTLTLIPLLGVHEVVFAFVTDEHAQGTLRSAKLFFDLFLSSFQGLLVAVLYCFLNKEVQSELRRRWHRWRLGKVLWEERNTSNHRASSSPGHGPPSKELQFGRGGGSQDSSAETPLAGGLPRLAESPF

EC50 (huGIPR) [nM] | EC50 (huGLP1R) [nM] | EC50 (huGLP2R) [nM] | EC50 (huGCGR) [nM] | Structure (SMILES)
> 10000 | 48.9 ± 9.15 | 592 ± 127 | 42.7 ± 14.5 | CC[C@H](C)[C@H](NC(=O)[C@H](CC(C)C)NC(=O)[C@H](Cc1c[nH]c2ccccc12)NC(=O)[C@H](Cc1c[nH]cn1)NC(=O)[C@@H](NC(=O)[C@H](Cc1ccccc1)NC(=O)[C@H](CC(=O)O)NC(=O)[C@H](CCCCN)NC(=O)[C@H](C)NC(=O)[C@H](CCCCN)NC(=O)[C@H](CCSC)NC(=O)[C@H](CCCCN)NC(=O)[C@H](CC(=O)O)NC(=O)[C@H](CC(C)C)NC(=O)[C@H](Cc1ccc(O)cc1)NC(=O)[C@H](CCCNC(=N)N)NC(=O)[C@@H](NC(=O)[C@H](Cc1ccccc1)NC(=O)[C@H](CC(=O)O)NC(=O)[C@H](CO)NC(=O)[C@@H](NC(=O)[C@H](Cc1ccccc1)NC(=O)[C@@H](NC(=O)CNC(=O)[C@H](CCC(=O)O)NC(=O)[C@H](CO)NC(=O)[C@@H](N)Cc1c[nH]cn1)[C@@H](C)O)[C@@H](C)O)[C@@H](C)O)C(C)C)C(=O)N[C@@H](CC(N)=O)C(=O)N[C@H](C(=O)O)[C@@H](C)O [chGCRP] (H-HSEGTFTSDFTRYLDKMKAKDFVHWLINT-OH)
> 10000 | 156 ± 32.8 | > 10000 | 175 ± 41.8 | CC[C@H](C)[C@H](NC(=O)[C@H](C)NC(=O)[C@H](C)NC(=O)[C@H](CC(C)C)NC(=O)[C@H](Cc1c[nH]c2ccccc12)NC(=O)[C@H](CCC(=O)O)NC(=O)[C@@H](NC(=O)[C@H](Cc1ccccc1)NC(=O)[C@H](CC(N)=O)NC(=O)[C@H](CCCCN)NC(=O)[C@H](C)NC(=O)[C@H](CCCCN)NC(=O)[C@H](CCSC)NC(=O)[C@H](CCCCN)NC(=O)[C@H](CC(=O)O)NC(=O)[C@H](CC(C)C)NC(=O)[C@H](Cc1ccc(O)cc1)NC(=O)[C@H](CC(N)=O)NC(=O)[C@@H](NC(=O)[C@H](CC(C)C)NC(=O)[C@H](CC(=O)O)NC(=O)[C@H](CO)NC(=O)[C@@H](NC(=O)[C@H](Cc1ccccc1)NC(=O)[C@H](CCSC)NC(=O)CNC(=O)[C@H](CC(=O)O)NC(=O)[C@@H](NC(=O)[C@@H](N)Cc1c[nH]cn1)[C@@H](C)O)[C@@H](C)O)[C@@H](C)O)C(C)C)C(=O)N[C@@H](CCCCN)C(=O)N[C@@H](CCC(N)=O)C(=O)N[C@@H](CCC(N)=O)C(=O)N[C@@H](CCC(=O)O)C(=O)O [mdGCRP] (H-HTDGMFTSDLTNYLDKMKAKNFVEWLAAIKQQE-OH)
> 10000 | > 1000 | > 10000 | 182 ± 39.5 | CSCC[C@H](NC(=O)[C@H](CC(C)C)NC(=O)[C@H](Cc1c[nH]c2ccccc12)NC(=O)[C@H](CCC(N)=O)NC(=O)[C@@H](NC(=O)[C@H](Cc1ccccc1)NC(=O)[C@H](CC(=O)O)NC(=O)[C@H](CCCCN)NC(=O)[C@H](C)NC(=O)[C@H](CCCCN)NC(=O)[C@H](CCSC)NC(=O)[C@H](CCCCN)NC(=O)[C@H](CC(=O)O)NC(=O)[C@H](CC(C)C)NC(=O)[C@H](Cc1ccc(O)cc1)NC(=O)[C@H](CCCNC(=N)N)NC(=O)[C@@H](NC(=O)[C@H](CC(C)C)NC(=O)[C@H](CC(=O)O)NC(=O)[C@H](CO)NC(=O)[C@H](CO)NC(=O)[C@H](Cc1ccccc1)NC(=O)[C@@H](NC(=O)CNC(=O)[C@H](CCC(=O)O)NC(=O)[C@H](CO)NC(=O)[C@@H](N)Cc1c[nH]cn1)[C@@H](C)O)[C@@H](C)O)C(C)C)C(=O)N[C@@H](CC(N)=O)C(=O)O [xeGCRP] (H-HSEGTFSSDLTRYLDKMKAKDFVQWLMN-OH)
